# In US20250032530A1, “USE OF AURANOFIN AS AN INHIBITOR OF ATYPICAL PROTEIN KINASE C FOR TREATMENT OF NEURODEGENERATIVE DISORDERS” (UNIVERSITY OF SOUTH FLORIDA, priority 2021, published 2025):
# pIC50: −log10 of the molar value. Read-outs that look alike come from different tables or passages of the source.
# Columns and labels:
# [1] = biological target: T1, 70 kDa PKC-λ/ι (Mus musculus, UniProt Q62074); assay: 70 kDa PKC-λ/ι activity (p-thr-555/560-aPKC, Western) in brain and liver of normal mice given ICAP nasally or IV; assay type: in vivo
# T1 construct: from tissue; host or cells: mouse brain and liver
# T1 sequence (Q62074 1-595): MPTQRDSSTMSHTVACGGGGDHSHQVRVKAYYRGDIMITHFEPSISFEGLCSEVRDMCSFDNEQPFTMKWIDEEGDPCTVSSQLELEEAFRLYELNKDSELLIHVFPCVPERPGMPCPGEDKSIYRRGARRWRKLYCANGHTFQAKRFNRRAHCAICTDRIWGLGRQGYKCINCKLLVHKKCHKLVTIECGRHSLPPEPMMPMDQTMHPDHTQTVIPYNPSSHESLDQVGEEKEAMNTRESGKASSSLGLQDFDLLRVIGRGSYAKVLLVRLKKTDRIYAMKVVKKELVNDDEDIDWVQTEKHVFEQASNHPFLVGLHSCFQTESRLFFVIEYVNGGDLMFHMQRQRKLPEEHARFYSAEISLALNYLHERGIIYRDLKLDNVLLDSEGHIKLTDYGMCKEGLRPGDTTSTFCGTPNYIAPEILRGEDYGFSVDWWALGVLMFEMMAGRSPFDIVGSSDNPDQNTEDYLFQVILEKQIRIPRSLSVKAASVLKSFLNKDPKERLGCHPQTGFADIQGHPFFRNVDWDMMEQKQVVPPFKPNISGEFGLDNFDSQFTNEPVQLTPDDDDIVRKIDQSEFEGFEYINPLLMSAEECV
# [2] = biological target: T2, 50 kDa PKMζ (Mus musculus, UniProt Q02956); assay: 50 kDa PKMζ activity in brain of normal mice given nasal ICAP; assay type: in vivo; conditions: 100 mg/kg/day, 3 weeks
# T2 construct: from tissue; host or cells: mouse brain
# T2 sequence (Q02956 1-409 isoform Q02956-2): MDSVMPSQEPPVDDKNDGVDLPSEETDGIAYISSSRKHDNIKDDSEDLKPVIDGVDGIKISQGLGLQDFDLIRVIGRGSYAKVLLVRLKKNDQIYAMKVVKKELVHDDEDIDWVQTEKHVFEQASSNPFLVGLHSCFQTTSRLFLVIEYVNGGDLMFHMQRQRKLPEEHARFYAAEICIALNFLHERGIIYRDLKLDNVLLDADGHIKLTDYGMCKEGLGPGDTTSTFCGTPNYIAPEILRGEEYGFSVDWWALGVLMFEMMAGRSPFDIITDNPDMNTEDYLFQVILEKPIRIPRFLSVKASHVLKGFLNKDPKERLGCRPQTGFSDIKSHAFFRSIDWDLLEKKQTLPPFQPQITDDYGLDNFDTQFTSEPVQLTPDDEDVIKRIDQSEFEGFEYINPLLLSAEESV
# [3] = test system: BACE1; assay: BACE1 protein and mRNA levels in brain and liver of normal mice given ICAP nasally or IV; assay type: in vivo, mouse
# Method: Values are mean±SEM of 6 mice/group. P values, (ANOVA).
# Values are mean±SEM of 6 mice/group.
# As described, samples from mouse brains that were flash-frozen in liquid N2 and stored at −80° C. were homogenized in buffer containing 0.25M sucrose, 20 mM Tris/HCl (pH, 7.5), 2 mM EGTA, 2 mM EDTA, 1 mM phenyl-methyl-sulfonyl-fluoride, 20 μg/ml leupeptin, 10 μg/ml aprotinin, 2 mM Na4P2O7, 2 mM Na3VO4, 2 mM NaF, and 1 μM microcystin, and then supplemented with 1% TritonX-100, 0.6% Nonidet and 150 mM NaCl.
# (§1) As described, western analyses were conducted with rabbit antisera, using: anti-aPKC [recognizes a C-terminal sequence in all aPKCs (Santa Cruz Biotechnologies, Santa Cruz, CA, USA)]; anti-phospho-threonine (thr)-560/555-PKC-ζ/λ/ι [recognizes a phosphopeptide sequence present in all aPKCs and indicates activation (Invitrogen, Carlsbad, CA, USA)]; anti-phospho-serine (ser)-473-Akt [recognizes a phosphopeptide sequence at 60 kDa present in all Akt's-1/2/3 and indicates activation (Cell Signaling Technologies, Danvers, MA, USA)]; anti-4 kDa-AP1-40/42 (Cell Signaling Technologies, Danvers, MA, USA); anti-mouse-70 kDa-BACE1 and anti-human-70 kDa-BACE1 (ThermoFisher); and anti-phospho-threonine (thr)-231-tau (Gene Tex, Irvine, CA, USA). Samples from all experimental groups within each study were compared on the same blots and routinely checked with loading controls. All comparisons in histograms were made relative to the mean value of the basal control group, i.e., wild-type mice consuming standard low-fat mouse chow, untreated with insulin or aPKC inhibitors, and having normal levels of aPKCs and other cellular proteins.
# [4] = test system: Aβ-peptides and Aβ-plaque; assay: AD pathology (Aβ-peptides by ELISA, Aβ-plaque load) in transgenic APP/PS1 AD mice given ICAP; assay type: in vivo, mouse
# [5] = test system: Tg APP/PS1 AD mice; assay: Memory tests (Novel Object Recognition, RAWM) in transgenic APP/PS1 AD mice given oral ICAP; assay type: in vivo, mouse; conditions: PO 100 mg/kg/day × 3 months
# Method: Radial Arm Water Maze (RAWM) assesses learning and spatial memory and requires hippocampal and frontal cortical areas. The maze consisted of a circular pool filled with opaque water, with 6 arms radiating from a central area. On each training day, mice were released to swim and find a submerged escape platform at the end of a goal arm, utilizing extra-maze cues to form a spatial representation. On each day, there were 4 consecutive acquisition trials of no more than 1 minute each. […] If the animal made an error, it was returned to the start arm in a restart procedure. After the last acquisition trial, the animal was dried and returned to its home cage for 30 min and then given a single retention trial from the same start arm to measure short-term spatial memory.
# [6] = test system: BACE1 and CKs (TNF-α, IL-1β, IL-6); assay: BACE1 and proinflammatory cytokine levels in APP/PS1 AD mice given oral ICAP; assay type: in vivo, mouse
# Excerpt: Values are Mean±SEM of results in 10 mice.
# As alluded to, resting PKC-λ/ι activity was increased by approx. 40% in brains of Tg APP/PS1 AD mice, relative to normal WT mice (FIG. 17).
# [7] = Distribution and passage of the blood brain barrier; assay type: in vivo; conditions: published and prelim PK/PD studies
# Method: aPKC Inhibitors. We identified by HTS compounds that target the substrate-binding site of aPKCs and potently (IC50s10-30 nM) inhibit recombinant PIP3-dependent aPKCs, but not DAG-dependent PKCs. Three compounds have been studied in detail: (a) 1H-imidazole-4-carboxamide, 5-amino-1-[2,3-dihydroxy-4-[(phosphono-oxy)methyl]cyclopentyl-[1R-(1a,2b,3b,4a)] […] Thus, these agents can reduce brain aPKC activity, indirectly at lower doses by inhibiting liver aPKC and correcting hyperinsulinemia in insulin-resistant states, and, at higher doses, by acting directly on brain PKC-λ/ι.
# [8] = test system: aPKC, Akt2, AMP-activated kinase (AMPK), FoxO1; conditions: isolated human hepatocytes; cited from earlier work
# [9] = test system: aPKC; conditions: cited from earlier work
# [10] = IV and PO, 200 mg/kg body weight; cited from earlier work
# [11] = biological target: T3, PKC-λ/ι (Mus musculus, UniProt Q62074); conditions: cited from earlier work
# T3 sequence (Q62074 1-595): T1 sequence (Q62074 1-595)
# [12] = test system: NFκB; assay: Insulin-induced NFκB activity in LA1-5s neuronal cells; assay type: cell-based, human; conditions: 200 nM insulin, 24 hours; 1 μM ACPD, increasing concentrations of auranofin
# Excerpt: (§2) Cell lysates were subjected to Western analyses for phosphorylated/activated forms of aPKC, NFκB and Akt. Representative blots of indicated proteins are shown in upper bands. […] Bargrams show Mean±SEM of 3-4 determinations. Asterisks indicate P<0.05; comparison of designated group versus the uninhibited, insulin-treated group (ANOVA).
# (§3) LA1-5s neuronal cells were originally obtained from non-catecholamine-producing neuroblastoma of a person and are commercially available from the European Collection of Authenticated Cell Cultures. Incubation conditions were as described.
# as §1, with “Samples from all experimental groups within each study were compared on the same blots and routinely checked with loading controls. All comparisons in histograms were made relative to the mean value of the basal control group, i.e., wild-type mice consuming standard low-fat mouse chow, untreated with insulin or aPKC inhibitors, and having normal levels of aPKCs and other cellular proteins.” left out
# [13] = test system: BACE1; assay: BACE1 levels in LA1-5s neuronal cells treated with insulin; assay type: cell-based, human; conditions: 200 nM insulin, 24 hours; increasing concentrations of ICAPP
# Method: Values of BACE1 are Mean±SEM of 4 values. Asterisks indicate P<0.05 for comparison of designated group versus the untreated control group (ANOVA).
# as §3, §1
# [14] = test system: Akt; assay: Insulin-induced Akt activation in LA1-5s neuronal cells; assay type: cell-based, human; conditions: 200 nM insulin, 24 hours
# Excerpt: as §2, §3
# as §1, with “Samples from all experimental groups within each study were compared on the same blots and routinely checked with loading controls. All comparisons in histograms were made relative to the mean value of the basal control group, i.e., wild-type mice consuming standard low-fat mouse chow, untreated with insulin or aPKC inhibitors, and having normal levels of aPKCs and other cellular proteins.” left out
# [15] = test system: sensitive cancer cells; conditions: read-out: cytotoxicity activity (IC50); cited from earlier work
# [16] = test system: non-sensitive cancer cells; conditions: read-out: cytotoxicity activity (IC50); cited from earlier work
# [17] = test system: CA-125; conditions: oral administration, 10 patients; cited from earlier work
# [18] = test system: PKCι and PKCζ; conditions: cited from earlier work
# [19] = PO; cited from earlier work
# [20] = nasal, 100 mg/kg/day, 3 weeks, brain
# [21] = mouse, in vivo, po, 100 mg/kg/day
# [22] = PO 100 mg/kg/day × 3 months, brain
smiles,measurement,setting,value
NC(=O)c1ncn(C2CC(CO)C(O)C2O)c1N (centres unmarked) [ICAP],decrease of brain PKC-λ/ι (aPKC) activity,"[1]; IV, 100 mg/kg/day × 7 days, normal mice, brain",50-60%
same,inhibition of PKC-λ versus PKMζ,[1]; mouse brain,"inhibits PKC-λ, but not PKMζ"
same,inhibition of brain 70 kDa PKC-λ/ι (aPKC) activity,"[1]; nasal, 100 mg/kg/day, 3 weeks, normal mice, brain",70-80%
same,brain 50 kDa PKMζ activity,[2],not altered
same,decrease of brain BACE1 levels,"[3]; IV, 100 mg/kg/day × 7 days, brain",50-60%
same,decrease of liver BACE1 levels,"[3]; IV, 100 mg/kg/day × 7 days, liver",approximately 90%
same,decrease of brain BACE1 mRNA levels,[3]; [20],approximately 50%
same,decrease of brain BACE1 protein levels,[3]; [20],approximately 50%
same,reduction of Aβ-plaque load,"[4]; PO 100 mg/kg/day × 3 months, APP/PS1 AD mice",approx. 70%
same,Aβ40 levels,[4]; [21],reduced
same,Aβ42 levels,[4]; [21],reduced
same,AD pathological and functional aberrations,"[4]; nasal ICAP, APP/PS1 AD mice, not shown",corrected AD pathological and functional aberrations
same,"memory function, Novel Object Recognition (NOR) test",[5],restored memory functions
same,"memory function, RAWM test",[5]; not shown,restored memory functions
same,liver BACE1 levels,"[6]; PO 100 mg/kg-bw daily, liver",diminished
same,brain levels of BACE1,[6]; [22],diminished
same,"brain levels of CKs (TNF-α, IL-1β, IL-6)",[6]; [22],diminished
same,passage of the BBB,[7],clearly passes the BBB and enters the brain
same,tissue distribution,[7],preferentially distributes to liver
same,FoxO1 phosphorylation/inactivation,[8],increase FoxO1 phosphorylation/inactivation
same,"inhibition of aPKC, Akt2, AMPK",[8],inhibit aPKC but not Akt2 or AMP-activated kinase (AMPK)
same,inhibition of brain aPKC,[9]; at higher doses,inhibit brain aPKC
same,effectiveness in brain,"[9]; given per os (PO), nasally, SC",effective in brain
same,"aPKC inhibition in liver, muscle, adipose tissue","[9]; intact mice, employed doses","inhibit aPKC in liver, but not in muscle or adipose tissue"
same,"ICAP uptake over 24 hours, liver versus brain",[10],substantially greater in liver than in brain
same,effect on LTP and LTM,[11],lack of effect
"CC(=O)OC[C@H]1O[C@@H]([S-])[C@H](OC(C)=O)[C@@H](OC(C)=O)[C@@H]1OC(C)=O.CCP(CC)CC.[Au+] [auranofin, 1-thio-β-D-glucopyranosatotriethylphosphine gold-2,3,4,6-tetraacetate]",insulin-induced increase in NFκB activity,[12],diminished
same,insulin-induced increase in BACE1 levels,[13],diminished
same,insulin-induced Akt activation,[14],not Akt activation
same,pIC50,[15],≥ 5.00
same,pIC50,[16],< 4.40
same,levels of CA-125,[17],decreased levels of CA-125 in one patient
same,inhibition of PKCι and PKCζ signaling by targeting the PB1 domain,[18],inhibits PKCι and PKCζ signaling
same,insulin activation of aPKC (PB1 site),[18],inhibit insulin activation of aPKC
same,passage of the BBB,[19],known to cross the BBB
